Reference: US20090181898A1, “ABUSE-RESISTANT A[…]” (SHIRE LLC, priority 2002, published 2009)
Marks after values point to notes of the source that are not given here.

Experiments:
stimulant abusers = assay: Abuse liability of intravenous L-lysine-d-amphetamine in stimulant abusers; conditions: d-amphetamine 20 mg
rats [1] = assay: Horizontal locomotor activity after oral administration; format: in vivo, Sprague-Dawley rats; design: Time of Peak (Counts per 0.2 h): unit not given here; conditions: rats, oral gavage 6 mg/kg
[2] = Intranasal bioavailability (LC/MS/MS); conditions: rat, intranasal, 3 mg/kg
anesthetized dog = assay: Cardiovascular effects following intravenous injection in the anesthetized dog
[3] = Oral bioavailability at escalating doses (LC/MS/MS); conditions: rat; for AUC0-8 of d-amphetamine / AUCinf of d-amphetamine / F of d-amphetamine / Tmax of d-amphetamine / Cmax of d-amphetamine / AUCinf alt. calc. of d-amphetamine: oral; for Cmax of d-amphetamine: LC/MS/MS; for AUCinf alt. calc. of d-amphetamine: WinNonlin, in ng·h/mL
rats [4] = assay: Locomotor activity after intranasal administration with and without CMC; format: in vivo, Sprague-Dawley rats; conditions: rats, intranasal 1.0 mg/kg, 1 h
Source text: The CMC drug mixtures were suspended thoroughly before each dose was delivered.

rats [5] = assay: Locomotor activity after intravenous administration; format: in vivo, Sprague-Dawley rats; conditions: rat, 1.0 mg/kg
[6] = IV, L-lysine-d-amphetamine 50 mg

d-amphetamine
Time of mean peak plasma level of d-amphetamine (stimulant abusers; IV): 5 min | Time of mean peak responses (stimulant abusers; IV): 15 min | Mean maximum response on Subject Liking VAS vs placebo (stimulant abusers; [6]): significantly greater than placebo | Subjects (of 9) who would take the treatment again (stimulant abusers; [6]): Six | Mean peak plasma level of d-amphetamine (stimulant abusers; stimulant abusers, IV over 2 minutes, L-lysine-d-amphetamine 50 mg): 77.7 ng/mL | Peak of activity (Counts per 0.2 h) (rats [1]; 5 h experiment): 291 Counts per 0.2 h | Time of Last Count Above 200 per 0.2 h (rats [1]; 5 h experiment): 2.6 h | Time of Peak (Counts per 0.2 h) (rats [1]; 5 h experiment): 0.6 | Total Activity Counts (rats [1]; 5 h experiment): 515 | Total Activity Counts Above Baseline (rats [1]; 5 h experiment): 0 | Peak of activity (Counts per 0.2 h) (rats [1]; 12 h experiment): 223 Counts per 0.2 h | Time of Last Count Above 200 per 0.2 h (rats [1]; 12 h experiment): 6.4 h | Time of Peak (Counts per 0.2 h) (rats [1]; 12 h experiment): 0.6 | Total Activity Counts (rats [1]; 12 h experiment): 6622 | Total Activity Counts Above Baseline (rats [1]; 12 h experiment): 5686 | AUC0-1 of d-amphetamine [2]: 1032 ng·h/mL | AUCinf of d-amphetamine [2]: 7291 ng·h/mL | Cmax of d-amphetamine ([2]; LC/MS/MS): 1962.9 ng/mL | AUCinf alt. calc. of d-amphetamine ([2]; in ng·h/mL): 1,267 | DAP % Change (anesthetized dog; iv 0.202 mg/kg, Time 0): 0% | LVP % Change (anesthetized dog; iv 0.202 mg/kg, Time 0): 0% | MAP % Change (anesthetized dog; iv 0.202 mg/kg, Time 0): 0% | MAP mean arterial pressure (anesthetized dog; iv 0.202 mg/kg, Time 0): 84 mmHg | SAP % Change (anesthetized dog; iv 0.202 mg/kg, Time 0): 0% | SAP systolic arterial pressure (anesthetized dog; iv 0.202 mg/kg, Time 0): 111 mmHg | DAP % Change (anesthetized dog; iv 0.202 mg/kg, Time 5): 117% | LVP % Change (anesthetized dog; iv 0.202 mg/kg, Time 5): 107% | MAP % Change (anesthetized dog; iv 0.202 mg/kg, Time 5): 109% | MAP mean arterial pressure (anesthetized dog; iv 0.202 mg/kg, Time 5): 176 mmHg | SAP % Change (anesthetized dog; iv 0.202 mg/kg, Time 5): 97% | SAP systolic arterial pressure (anesthetized dog; iv 0.202 mg/kg, Time 5): 218 mmHg | DAP % Change (anesthetized dog; iv 0.202 mg/kg, Time 15): 45% | LVP % Change (anesthetized dog; iv 0.202 mg/kg, Time 15): 52% | MAP % Change (anesthetized dog; iv 0.202 mg/kg, Time 15): 49% | MAP mean arterial pressure (anesthetized dog; iv 0.202 mg/kg, Time 15): 125 mmHg | SAP % Change (anesthetized dog; iv 0.202 mg/kg, Time 15): 52% | SAP systolic arterial pressure (anesthetized dog; iv 0.202 mg/kg, Time 15): 168 mmHg | DAP % Change (anesthetized dog; iv 0.202 mg/kg, Time 25): 30% | LVP % Change (anesthetized dog; iv 0.202 mg/kg, Time 25): 37% | MAP % Change (anesthetized dog; iv 0.202 mg/kg, Time 25): 31% | MAP mean arterial pressure (anesthetized dog; iv 0.202 mg/kg, Time 25): 110 mmHg | SAP % Change (anesthetized dog; iv 0.202 mg/kg, Time 25): 34% | SAP systolic arterial pressure (anesthetized dog; iv 0.202 mg/kg, Time 25): 148 mmHg | DAP % Change (anesthetized dog; iv 0.202 mg/kg, Time 30): 20% | LVP % Change (anesthetized dog; iv 0.202 mg/kg, Time 30): 30% | MAP % Change (anesthetized dog; iv 0.202 mg/kg, Time 30): 23% | MAP mean arterial pressure (anesthetized dog; iv 0.202 mg/kg, Time 30): 103 mmHg | SAP % Change (anesthetized dog; iv 0.202 mg/kg, Time 30): 26% | SAP systolic arterial pressure (anesthetized dog; iv 0.202 mg/kg, Time 30): 140 mmHg | DAP % Change (anesthetized dog; iv 0.404 mg/kg, Time 0): 0% | LVP % Change (anesthetized dog; iv 0.404 mg/kg, Time 0): 0% | MAP % Change (anesthetized dog; iv 0.404 mg/kg, Time 0): 0% | MAP mean arterial pressure (anesthetized dog; iv 0.404 mg/kg, Time 0): 101 mmHg | SAP % Change (anesthetized dog; iv 0.404 mg/kg, Time 0): 0% | SAP systolic arterial pressure (anesthetized dog; iv 0.404 mg/kg, Time 0): 139 mmHg | DAP % Change (anesthetized dog; iv 0.404 mg/kg, Time 5): 88% | LVP % Change (anesthetized dog; iv 0.404 mg/kg, Time 5): 79% | MAP % Change (anesthetized dog; iv 0.404 mg/kg, Time 5): 85% | MAP mean arterial pressure (anesthetized dog; iv 0.404 mg/kg, Time 5): 187 mmHg | SAP % Change (anesthetized dog; iv 0.404 mg/kg, Time 5): 73% | SAP systolic arterial pressure (anesthetized dog; iv 0.404 mg/kg, Time 5): 240 mmHg | DAP % Change (anesthetized dog; iv 0.404 mg/kg, Time 15): 44% | LVP % Change (anesthetized dog; iv 0.404 mg/kg, Time 15): 43% | MAP % Change (anesthetized dog; iv 0.404 mg/kg, Time 15): 43% | MAP mean arterial pressure (anesthetized dog; iv 0.404 mg/kg, Time 15): 145 mmHg | SAP % Change (anesthetized dog; iv 0.404 mg/kg, Time 15): 39% | SAP systolic arterial pressure (anesthetized dog; iv 0.404 mg/kg, Time 15): 193 mmHg | DAP % Change (anesthetized dog; iv 0.404 mg/kg, Time 25): 17% | LVP % Change (anesthetized dog; iv 0.404 mg/kg, Time 25): 26% | MAP % Change (anesthetized dog; iv 0.404 mg/kg, Time 25): 20% | MAP mean arterial pressure (anesthetized dog; iv 0.404 mg/kg, Time 25): 122 mmHg | SAP % Change (anesthetized dog; iv 0.404 mg/kg, Time 25): 19% | SAP systolic arterial pressure (anesthetized dog; iv 0.404 mg/kg, Time 25): 166 mmHg | DAP % Change (anesthetized dog; iv 0.404 mg/kg, Time 30): 11% | LVP % Change (anesthetized dog; iv 0.404 mg/kg, Time 30): 22% | MAP % Change (anesthetized dog; iv 0.404 mg/kg, Time 30): 16% | MAP mean arterial pressure (anesthetized dog; iv 0.404 mg/kg, Time 30): 117 mmHg | SAP % Change (anesthetized dog; iv 0.404 mg/kg, Time 30): 16% | SAP systolic arterial pressure (anesthetized dog; iv 0.404 mg/kg, Time 30): 160 mmHg | DAP % Change (anesthetized dog; iv 2.02 mg/kg, Time 0): 0% | LVP % Change (anesthetized dog; iv 2.02 mg/kg, Time 0): 0% | MAP % Change (anesthetized dog; iv 2.02 mg/kg, Time 0): 0% | MAP mean arterial pressure (anesthetized dog; iv 2.02 mg/kg, Time 0): 115 mmHg | SAP % Change (anesthetized dog; iv 2.02 mg/kg, Time 0): 0% | SAP systolic arterial pressure (anesthetized dog; iv 2.02 mg/kg, Time 0): 158 mmHg | DAP % Change (anesthetized dog; iv 2.02 mg/kg, Time 5): 48% | LVP % Change (anesthetized dog; iv 2.02 mg/kg, Time 5): 40% | MAP % Change (anesthetized dog; iv 2.02 mg/kg, Time 5): 47% | MAP mean arterial pressure (anesthetized dog; iv 2.02 mg/kg, Time 5): 169 mmHg | SAP % Change (anesthetized dog; iv 2.02 mg/kg, Time 5): 44% | SAP systolic arterial pressure (anesthetized dog; iv 2.02 mg/kg, Time 5): 228 mmHg | DAP % Change (anesthetized dog; iv 2.02 mg/kg, Time 15): 23% | LVP % Change (anesthetized dog; iv 2.02 mg/kg, Time 15): 24% | MAP % Change (anesthetized dog; iv 2.02 mg/kg, Time 15): 23% | MAP mean arterial pressure (anesthetized dog; iv 2.02 mg/kg, Time 15): 142 mmHg | SAP % Change (anesthetized dog; iv 2.02 mg/kg, Time 15): 24% | SAP systolic arterial pressure (anesthetized dog; iv 2.02 mg/kg, Time 15): 196 mmHg | DAP % Change (anesthetized dog; iv 2.02 mg/kg, Time 25): 17% | LVP % Change (anesthetized dog; iv 2.02 mg/kg, Time 25): 19% | MAP % Change (anesthetized dog; iv 2.02 mg/kg, Time 25): 17% | MAP mean arterial pressure (anesthetized dog; iv 2.02 mg/kg, Time 25): 135 mmHg | SAP % Change (anesthetized dog; iv 2.02 mg/kg, Time 25): 20% | SAP systolic arterial pressure (anesthetized dog; iv 2.02 mg/kg, Time 25): 189 mmHg | DAP % Change (anesthetized dog; iv 2.02 mg/kg, Time 30): 13% | LVP % Change (anesthetized dog; iv 2.02 mg/kg, Time 30): 16% | MAP % Change (anesthetized dog; iv 2.02 mg/kg, Time 30): 12% | MAP mean arterial pressure (anesthetized dog; iv 2.02 mg/kg, Time 30): 129 mmHg | SAP % Change (anesthetized dog; iv 2.02 mg/kg, Time 30): 16% | SAP systolic arterial pressure (anesthetized dog; iv 2.02 mg/kg, Time 30): 183 mmHg | AUC (0-1.5) of d-amphetamine ([3]; in vivo, po, 60 mg/kg): 14,281** ng · h/mL | AUC0-8 of d-amphetamine ([3]; 3 mg/kg): 885 ng·h/mL | AUCinf of d-amphetamine ([3]; 3 mg/kg): 921 ng·h/mL | F of d-amphetamine ([3]; 3 mg/kg): 84% | Tmax of d-amphetamine ([3]; 3 mg/kg): 90 min | Cmax of d-amphetamine ([3]; 3 mg/kg): 217.2 ng/mL | AUCinf alt. calc. of d-amphetamine ([3]; 3 mg/kg): 1,059 | AUC0-8 of d-amphetamine ([3]; 6 mg/kg): 1,319 ng · h/mL | AUCinf of d-amphetamine ([3]; 6 mg/kg): 1,362 ng · h/mL | F of d-amphetamine ([3]; 6 mg/kg): 62% | Tmax of d-amphetamine ([3]; 6 mg/kg): 15 min | Cmax of d-amphetamine ([3]; 6 mg/kg): 815.3 ng/mL | AUCinf alt. calc. of d-amphetamine ([3]; 6 mg/kg): 1429 | AUC0-8 of d-amphetamine ([3]; 12 mg/kg): 4,252 ng · h/mL | AUCinf of d-amphetamine ([3]; 12 mg/kg): 4,428 ng · h/mL | F of d-amphetamine ([3]; 12 mg/kg): 101% | Tmax of d-amphetamine ([3]; 12 mg/kg): 15 min | Cmax of d-amphetamine ([3]; 12 mg/kg): 1,533.1 ng/mL | AUCinf alt. calc. of d-amphetamine ([3]; 12 mg/kg): 4,636 | AUCinf of d-amphetamine ([3]; 60 mg/kg): 48,707 ng · h/mL | F of d-amphetamine ([3]; 60 mg/kg): 223% | Tmax of d-amphetamine ([3]; 60 mg/kg): 60 min | Cmax of d-amphetamine ([3]; 60 mg/kg): 13,735 ng/mL | AUCinf alt. calc. of d-amphetamine ([3]; 60 mg/kg): 48,707 | Tmax of d-amphetamine ([3]; […]): 30 min | Total Activity Counts (1 h) (rats [4]): 858 | Total Activity Counts Above Baseline (rats [4]): 686 | Total Activity Counts (3 h) (rats [5]): 1659 | Activity above baseline, Percent Amp (rats [5]; 3 h): 100% | Total Activity Counts Above Baseline (rats [5]; 3 h): 1355
